Test results published in patent publication US20160151380A1, “THERAPIES FOR DISEASES CAUSED BY ARTHROPOD-BORNE PARASITES” (THE REGENTS OF THE UNIVERSITY OF CALIFORNIA, priority 2013, published 2016).
Entries after “also recorded” stand apart in the source; their conditions may differ.

Columns and labels:
[1] = biological target: JNK3 (Homo sapiens, UniProt P53779); conditions: cited from earlier work
[2] = biological target: MAPK14 p38 (Homo sapiens, UniProt Q16539); conditions: cited from earlier work
Chain of MAPK14 p38 (Q16539 whole entry): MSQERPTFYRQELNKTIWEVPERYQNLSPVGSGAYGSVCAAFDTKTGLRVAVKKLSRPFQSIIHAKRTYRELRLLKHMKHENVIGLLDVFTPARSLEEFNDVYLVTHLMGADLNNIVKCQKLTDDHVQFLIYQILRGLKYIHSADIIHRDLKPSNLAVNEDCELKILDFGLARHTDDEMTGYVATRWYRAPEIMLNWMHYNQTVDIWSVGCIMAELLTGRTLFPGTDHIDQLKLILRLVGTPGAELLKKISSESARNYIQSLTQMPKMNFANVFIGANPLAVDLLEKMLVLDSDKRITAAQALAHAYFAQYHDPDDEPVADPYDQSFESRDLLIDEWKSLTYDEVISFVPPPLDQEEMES

[3] = biological target: JNK1 (Homo sapiens, UniProt P45983); conditions: cited from earlier work
Chain of JNK1 (P45983 whole entry, species assumed): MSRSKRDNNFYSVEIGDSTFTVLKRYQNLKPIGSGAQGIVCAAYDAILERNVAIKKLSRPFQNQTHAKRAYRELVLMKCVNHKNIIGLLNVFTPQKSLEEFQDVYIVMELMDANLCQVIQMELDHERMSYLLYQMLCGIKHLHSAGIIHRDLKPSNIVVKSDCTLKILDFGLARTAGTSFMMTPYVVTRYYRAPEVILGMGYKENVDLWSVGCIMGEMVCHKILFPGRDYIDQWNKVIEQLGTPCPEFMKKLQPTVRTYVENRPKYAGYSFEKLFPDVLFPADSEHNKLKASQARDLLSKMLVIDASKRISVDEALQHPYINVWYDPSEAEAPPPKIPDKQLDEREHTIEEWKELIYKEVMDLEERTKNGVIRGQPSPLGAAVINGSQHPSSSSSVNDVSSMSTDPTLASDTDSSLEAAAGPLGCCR

[4] = biological target: T1, PKCepsilon (Homo sapiens, UniProt Q02156); conditions: PKCepsilon; cited from earlier work
T1 sequence (Q02156 1-737): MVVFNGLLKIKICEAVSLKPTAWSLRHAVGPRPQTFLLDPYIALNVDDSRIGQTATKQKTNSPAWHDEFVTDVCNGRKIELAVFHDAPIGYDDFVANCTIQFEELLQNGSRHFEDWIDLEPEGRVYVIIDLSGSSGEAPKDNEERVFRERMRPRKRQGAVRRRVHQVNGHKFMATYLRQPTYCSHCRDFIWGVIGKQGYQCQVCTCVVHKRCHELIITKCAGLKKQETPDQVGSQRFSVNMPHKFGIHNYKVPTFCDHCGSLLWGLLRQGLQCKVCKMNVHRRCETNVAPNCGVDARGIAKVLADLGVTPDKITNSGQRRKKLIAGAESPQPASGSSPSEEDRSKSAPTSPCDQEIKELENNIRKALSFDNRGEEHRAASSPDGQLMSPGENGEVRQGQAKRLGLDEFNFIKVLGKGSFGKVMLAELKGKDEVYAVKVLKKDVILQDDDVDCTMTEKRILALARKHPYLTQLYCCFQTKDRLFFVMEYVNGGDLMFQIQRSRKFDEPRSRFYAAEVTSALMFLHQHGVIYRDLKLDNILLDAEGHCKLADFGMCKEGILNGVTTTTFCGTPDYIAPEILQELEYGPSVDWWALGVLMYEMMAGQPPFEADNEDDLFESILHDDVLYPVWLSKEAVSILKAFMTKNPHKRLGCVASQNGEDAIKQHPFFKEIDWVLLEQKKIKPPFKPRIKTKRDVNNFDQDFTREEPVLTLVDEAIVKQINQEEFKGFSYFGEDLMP

[5] = system: Plasmodium falciparum; test: P. falciparum growth in vitro (flow cytometry); type: cell-based; conditions: 1 μM or 10 μM, 48 h, relative to vehicle control
[6] = system: anti-parasite genes; test: Midgut expression of anti-parasite/immune genes in A. stephensi (quantitative PCR); type: in vivo, Anopheles stephensi; conditions: fed killed lysate of P. falciparum with BIRB 796; 6 h post-feeding
[7] = system: Anopheles stephensi p38 MAPK; test: MK2 phosphorylation in LPS-stimulated ASE cells (western blot); type: cell-based; conditions: ASE cells pre-incubated with 10 μM inhibitor, 2 h later 1 μg/ml LPS
[8] = system: mosquito p38 MAPK
[9] = system: Plasmodium falciparum; test: P. falciparum development in A. stephensi after supplemented bloodmeal (oocysts); type: in vivo; conditions: 10 μM in bloodmeal
Protocol: Midguts were dissected and oocysts were counted at 10 days following infection. Dots in FIG. 3A and FIG. 3C represent oocyst numbers in one midgut, while percentage positive midguts or percentage of midguts with at least one oocyst are represented as means in FIG. 3B and FIG. 3D. Mean oocysts per midgut (lines, numbers on graph) were analyzed by ANOVA (alpha=0.05) for overall significance and by Student-Neuman-Keuls for pairwise comparisons using Graphpad Prism version 4.0 (San Diego, Calif.). Prevalences of mosquito infection (indicated on graph) were analyzed by chi-square (alpha=0.05).

[10] = system: A. stephensi; test: Mosquito lifespan, A. stephensi; type: in vivo, Anopheles stephensi; conditions: 1 μM or 10 μM daily in water or once weekly via bloodmeal
[11] = system: A. freeborni; test: Mosquito lifespan, A. freeborni; type: in vivo; conditions: 1 μM or 10 μM daily in water or once weekly via bloodmeal

Chain of JNK3 (P53779 whole entry, species assumed): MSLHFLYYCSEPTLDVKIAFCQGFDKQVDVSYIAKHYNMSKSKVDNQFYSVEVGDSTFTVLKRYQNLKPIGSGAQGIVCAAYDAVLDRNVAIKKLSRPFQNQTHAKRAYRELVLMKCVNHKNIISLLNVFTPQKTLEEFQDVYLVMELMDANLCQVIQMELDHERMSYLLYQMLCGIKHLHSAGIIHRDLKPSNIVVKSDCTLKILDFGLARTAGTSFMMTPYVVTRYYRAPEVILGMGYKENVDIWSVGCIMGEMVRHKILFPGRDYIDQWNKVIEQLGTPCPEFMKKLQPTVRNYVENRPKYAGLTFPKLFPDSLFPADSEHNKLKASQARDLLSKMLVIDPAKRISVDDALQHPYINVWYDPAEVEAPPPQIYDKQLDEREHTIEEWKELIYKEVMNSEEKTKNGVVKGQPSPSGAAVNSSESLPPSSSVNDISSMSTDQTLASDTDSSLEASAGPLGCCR

Compound: Cc1ccc(C(=O)Nc2cccc(C(F)(F)F)c2)cc1-c1ccc2nc(NCCN3CCOCC3)ncc2c1 [AMG-47a]
- IC50 [1]: 145 nM
- IC50 [2]: 3 nM

Compound: O=C(Nc1c[nH]nc1-c1nc2cc(CN3CCOCC3)ccc2[nH]1)NC1CC1 [AT9283]
- IC50 [3]: > 100 nM
- IC50 [1]: > 100 nM
- IC50 [2]: > 100 nM
- IC50 [4]: > 100 nM

Compound: Cc1ccc(-n2nc(C(C)(C)C)cc2NC(=O)Nc2ccc(OCCN3CCOCC3)c3ccccc23)cc1 [BIRB 796, 1-[5-tert-butyl-2-(4-methylphenyl)pyrazol-3-yl]-3-[4-(2-morpholin-4-ylethoxy)naphthalen-1-yl]urea]
- P. falciparum growth in vitro (parasitemia) [5]: Neither inhibitor significantly altered parasite growth; also recorded: no activity
- immune gene expression levels in midgut [6]: significantly different from controls

Compound: COc1ccc(N(C(=O)Nc2c(C)cccc2C)c2cc(Nc3ccc(N4CCN(C)CC4)cc3)ncn2)c(OC)c1 [HG-9-91-01]
- IC50 [1]: < 800 nM
- IC50 [2]: < 600 nM

Compound: O=C(O)[C@]1(Cc2cccc(Nc3nccs3)n2)CC[C@@H](Oc2cccc(Cl)c2F)CC1 [MK5108]
- IC50 [3]: > 1000 nM
- IC50 [1]: > 100 nM
- IC50 [4]: > 1000 nM

Compound: C[S+]([O-])c1ccc(-c2nc(-c3ccc(F)cc3)c(-c3ccncc3)[nH]2)cc1 (stereo not drawn) [SB203580, 4-[4-(4-fluorophenyl)-2-(4-methylsulfinylphenyl)-1H-imidazol-5-yl]pyridine]
- P. falciparum growth in vitro (parasitemia) [5]: Neither inhibitor significantly altered parasite growth; also recorded: no such effects
- p-MK2 levels [7]: undetectable
- p38 MAPK activity in the mosquito in vivo [8]: significantly reduced
- infection prevalence ([9]; 10 days): significantly reduced
- P. falciparum oocysts/midgut ([9]; oocysts counted at 10 days): significantly reduced

Compound: Oc1c2ccccc2c2c3c(cccc13)N=N2 [SP600125]
- impact on lifespan [10]: no negative impact
- impact on lifespan [11]: no negative impact

Compound: CCOC(=O)Cn1nc(C(F)F)cc1C [SureCN7018367]
- Kd [3]: < 1250 nM
- Kd [1]: < 10 nM

Compound: CNC(=O)[C@@]1(N)C[C@H]2O[C@]1(C)n1c3ccccc3c3c4c(c5c6ccccc6n2c5c31)C(=O)NC4 [TTT-3002]
- IC50 [3]: < 40 nM
- IC50 [1]: < 60 nM

Compound: C=CC(=O)Nc1cccc(Oc2nc(Nc3ccc(N4CCN(C)CC4)cc3)ncc2Cl)c1 [WZ3146]
- Kd [3]: > 1000 nM
- Kd [1]: > 1000 nM
- Kd [4]: > 1000 nM

Compound: C=CC(=O)Nc1cccc(Oc2nc(Nc3ccc(N4CCN(C)CC4)cc3OC)ncc2Cl)c1 [WZ4002]
- Kd [3]: > 1000 nM
- Kd [1]: > 1000 nM
- Kd [4]: > 1000 nM
